Measurements: PubChem BioAssay AID1918991 (Molecular Pharmacology Branch, DTP, NCI, 2023)
pIC50: −log10 of the molar value. One block for each compound: values may come before it.

Test system: 186277-243-T-J2-PDC complex spheroid growth
Test: Anticancer human tumor 186277-243-T-J2-PDC patient-derived colon adenocarcinoma cell line growth inhibition [AhR]
Details: for pIC50: curve of first compound; for viability, T/C: stronger effect = lower value
How it was run: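 Complex tumor spheroids co-cultured with HUVEC and human MSC stroma; AhR antagonists tested in combination with standard-of-care and investigational agents. Top concentration at or near clinical Cmax (else 10 microM), half-log dilutions; growth expressed as percent test/control.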

[1] = second compound 0.1 µM, first compound 0.000949 µM
[2] = second compound 0.1 µM, first compound 0.003 µM
[3] = second compound 0.1 µM, first compound 0.00949 µM
[4] = second compound 0.1 µM, first compound 0.03 µM
[5] = second compound 0.1 µM, first compound 0.0949 µM
[6] = second compound 0.1 µM, first compound 0.3 µM
[7] = second compound 0.316 µM, first compound 0.000949 µM
[8] = second compound 0.316 µM, first compound 0.003 µM
[9] = second compound 0.316 µM, first compound 0.00949 µM
[10] = second compound 0.316 µM, first compound 0.03 µM
[11] = second compound 0.316 µM, first compound 0.0949 µM
[12] = second compound 0.316 µM, first compound 0.3 µM
[13] = second compound 1 µM, first compound 0.000949 µM
[14] = second compound 1 µM, first compound 0.003 µM
[15] = second compound 1 µM, first compound 0.00949 µM
[16] = second compound 1 µM, first compound 0.03 µM
[17] = second compound 1 µM, first compound 0.0949 µM
[18] = second compound 1 µM, first compound 0.3 µM
[19] = second compound 3.16 µM, first compound 0.000949 µM
[20] = second compound 3.16 µM, first compound 0.003 µM
[21] = second compound 3.16 µM, first compound 0.00949 µM
[22] = second compound 3.16 µM, first compound 0.03 µM
[23] = second compound 3.16 µM, first compound 0.0949 µM
[24] = second compound 3.16 µM, first compound 0.3 µM
[25] = second compound 10 µM, first compound 0.000949 µM
[26] = second compound 10 µM, first compound 0.003 µM
[27] = second compound 10 µM, first compound 0.00949 µM
[28] = second compound 10 µM, first compound 0.03 µM
[29] = second compound 10 µM, first compound 0.0949 µM
[30] = second compound 10 µM, first compound 0.3 µM
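Further: spheroids exposed to compounds for seven days before the viability read.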
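Wherever viability, T/C is given: luminescent signal used as a stand-in for viable cell amount; 100% = DMSO vehicle control wells.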

- pIC50 (second compound 0.1 µM): 7.75
- pIC50 (second compound 0.316 µM): 7.77
- pIC50 (second compound 1 µM): 7.79
- pIC50 (second compound 3.16 µM): 7.80
- pIC50 (second compound 10 µM): 7.78
SMILES: CC(C)CC(NC(=O)C(Cc1ccccc1)NC(=O)c1cnccn1)B(O)O (stereo not given) + Cc1ccccc1N=Nc1ccc(NC(=O)c2ccnn2C)c(C)c1
- viability, T/C [1]: 101%
- viability, T/C [2]: 108%
- viability, T/C [3]: 109%
- viability, T/C [4]: 2.71%
- viability, T/C [5]: 1.36%
- viability, T/C [6]: 0.12%
- viability, T/C [7]: 104%
- viability, T/C [8]: 118%
- viability, T/C [9]: 97.3%
- viability, T/C [10]: 1.86%
- viability, T/C [11]: 0.39%
- viability, T/C [12]: 0.12%
- viability, T/C [13]: 99.8%
- viability, T/C [14]: 98.2%
- viability, T/C [15]: 91.5%
- viability, T/C [16]: 1.95%
- viability, T/C [17]: 1.08%
- viability, T/C [18]: 0.12%
- viability, T/C [19]: 104%
- viability, T/C [20]: 95.4%
- viability, T/C [21]: 89.1%
- viability, T/C [22]: 1.92%
- viability, T/C [23]: 0.77%
- viability, T/C [24]: 0.14%
- viability, T/C [25]: 96%
- viability, T/C [26]: 90.1%
- viability, T/C [27]: 98.6%
- viability, T/C [28]: 3.12%
- viability, T/C [29]: 0.43%
- viability, T/C [30]: 0.21%

- pIC50 (second compound 0.1 µM): 7.13
- pIC50 (second compound 0.316 µM): 7.18
- pIC50 (second compound 1 µM): 7.18
- pIC50 (second compound 3.16 µM): 7.22
- pIC50 (second compound 10 µM): 7.21
SMILES: CCc1c2c(nc3ccc(O)cc13)-c1cc3c(c(=O)n1C2)COC(=O)[C@]3(O)CC + Cc1ccccc1N=Nc1ccc(NC(=O)c2ccnn2C)c(C)c1
- viability, T/C [1]: 119%
- viability, T/C [2]: 143%
- viability, T/C [3]: 114%
- viability, T/C [4]: 81.7%
- viability, T/C [5]: 42.6%
- viability, T/C [6]: 25.4%
- viability, T/C [7]: 114%
- viability, T/C [8]: 145%
- viability, T/C [9]: 123%
- viability, T/C [10]: 78%
- viability, T/C [11]: 40.5%
- viability, T/C [12]: 27%
- viability, T/C [13]: 128%
- viability, T/C [14]: 157%
- viability, T/C [15]: 123%
- viability, T/C [16]: 80.5%
- viability, T/C [17]: 37.9%
- viability, T/C [18]: 24.2%
- viability, T/C [19]: 125%
- viability, T/C [20]: 138%
- viability, T/C [21]: 119%
- viability, T/C [22]: 77%
- viability, T/C [23]: 33.6%
- viability, T/C [24]: 21.1%
- viability, T/C [25]: 106%
- viability, T/C [26]: 114%
- viability, T/C [27]: 106%
- viability, T/C [28]: 76.6%
- viability, T/C [29]: 34.2%
- viability, T/C [30]: 21.9%

- pIC50 (second compound 0.1 µM): 5.23
- pIC50 (second compound 0.316 µM): 5.27
- pIC50 (second compound 1 µM): 5.25
- pIC50 (second compound 3.16 µM): 5.29
- pIC50 (second compound 10 µM): 5.39
SMILES: Nc1ccccc1NC(=O)c1ccc(CNC(=O)OCc2cccnc2)cc1 + Cc1ccccc1N=Nc1ccc(NC(=O)c2ccnn2C)c(C)c1
- viability, T/C (second compound 0.1 µM, first compound 0.0316 µM): 97.5%
- viability, T/C (second compound 0.1 µM, first compound 0.1 µM): 90%
- viability, T/C (second compound 0.1 µM, first compound 0.316 µM): 95.1%
- viability, T/C (second compound 0.1 µM, first compound 1 µM): 105%
- viability, T/C (second compound 0.1 µM, first compound 3.16 µM): 88.3%
- viability, T/C (second compound 0.1 µM, first compound 10 µM): 16.5%
- viability, T/C (second compound 0.316 µM, first compound 0.0316 µM): 106%
- viability, T/C (second compound 0.316 µM, first compound 0.1 µM): 95.9%
- viability, T/C (second compound 0.316 µM, first compound 0.316 µM): 96.7%
- viability, T/C (second compound 0.316 µM, first compound 1 µM): 94.4%
- viability, T/C (second compound 0.316 µM, first compound 3.16 µM): 79%
- viability, T/C (second compound 0.316 µM, first compound 10 µM): 16.2%
- viability, T/C (second compound 1 µM, first compound 0.0316 µM): 102%
- viability, T/C (second compound 1 µM, first compound 0.1 µM): 96.7%
- viability, T/C (second compound 1 µM, first compound 0.316 µM): 108%
- viability, T/C (second compound 1 µM, first compound 1 µM): 91.4%
- viability, T/C (second compound 1 µM, first compound 3.16 µM): 85.4%
- viability, T/C (second compound 1 µM, first compound 10 µM): 15%
- viability, T/C (second compound 3.16 µM, first compound 0.0316 µM): 93.9%
- viability, T/C (second compound 3.16 µM, first compound 0.1 µM): 97.7%
- viability, T/C (second compound 3.16 µM, first compound 0.316 µM): 84.8%
- viability, T/C (second compound 3.16 µM, first compound 1 µM): 96.8%
- viability, T/C (second compound 3.16 µM, first compound 3.16 µM): 75.9%
- viability, T/C (second compound 3.16 µM, first compound 10 µM): 13.2%
- viability, T/C (second compound 10 µM, first compound 0.0316 µM): 82.8%
- viability, T/C (second compound 10 µM, first compound 0.1 µM): 94.2%
- viability, T/C (second compound 10 µM, first compound 0.316 µM): 96.5%
- viability, T/C (second compound 10 µM, first compound 1 µM): 97.4%
- viability, T/C (second compound 10 µM, first compound 3.16 µM): 61.2%
- viability, T/C (second compound 10 µM, first compound 10 µM): 12.6%
